Test results as given in patent US11124537B2, “Inhibitors of glucocorticoid receptor” (ORIC Pharmaceuticals, Inc., priority 2015, dated 2021).

What follows are molecules tested against GR (Homo sapiens (Human), UniProt P04150) (assay: In Vitro GR Luciferase Reporter Assay). Settings: CHO-K1-GR-MMTV-Luc reporter cells, antagonist assay, 10 nM Dexamethasone, 18-24 hours.
GR, sequence (P04150 whole entry): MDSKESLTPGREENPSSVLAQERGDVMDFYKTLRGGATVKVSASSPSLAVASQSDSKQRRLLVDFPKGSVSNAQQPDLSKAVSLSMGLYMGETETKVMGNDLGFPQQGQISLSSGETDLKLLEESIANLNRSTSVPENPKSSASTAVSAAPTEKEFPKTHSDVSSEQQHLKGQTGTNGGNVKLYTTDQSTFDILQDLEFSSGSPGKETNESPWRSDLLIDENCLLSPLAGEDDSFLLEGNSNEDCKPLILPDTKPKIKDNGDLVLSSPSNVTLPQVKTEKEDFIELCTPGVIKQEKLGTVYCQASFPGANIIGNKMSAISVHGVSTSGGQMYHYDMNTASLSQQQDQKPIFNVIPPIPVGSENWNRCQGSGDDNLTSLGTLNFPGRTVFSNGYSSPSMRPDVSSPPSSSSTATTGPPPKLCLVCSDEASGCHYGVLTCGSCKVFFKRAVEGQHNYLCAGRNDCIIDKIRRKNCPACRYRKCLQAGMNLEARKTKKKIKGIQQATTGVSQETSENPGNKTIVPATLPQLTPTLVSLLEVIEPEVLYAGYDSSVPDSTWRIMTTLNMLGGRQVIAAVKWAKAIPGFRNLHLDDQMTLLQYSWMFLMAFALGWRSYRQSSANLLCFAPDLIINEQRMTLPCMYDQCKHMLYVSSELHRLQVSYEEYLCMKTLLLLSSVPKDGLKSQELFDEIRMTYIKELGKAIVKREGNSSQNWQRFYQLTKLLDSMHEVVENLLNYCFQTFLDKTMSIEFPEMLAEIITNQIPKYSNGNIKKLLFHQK
Assay type: cell-based
Description: Example 4: In Vitro GR Luciferase Reporter Assay
Cell Line: CHO-K1-GR-MMTV-Luc reporter cells
Culture Media: DMEM (with phenol red)+10% FBS
Assay Media: DMEM (without phenol red)+10% CSS
Culture CHO-K1-GR-MMTV-Luc reporter cells in 15 cm plates in Culture Media at conditions less than 90% confluence.
Prepare 200×DMSO 1:5 serial dilutions of control and test compounds in 96-well non-sterile V bottom plate in DMSO, 8 serial dilutions for each compound.
Prepare 5× Assay Media diluted compound serial dilutions in 96-well non-sterile V bottom plate: Add 97.5 uL/well of Assay Media into 96-well then add 2.5 ul of 200× concentration of compounds and mix well.
Seed cells for Antagonist Assay: […] CHO-K1-GR-MMTV-Luc reporter cells were seeded in a Corning 3707 flat clear bottom 384-well white TC plate in 20 ul of Assay Media containing 12.5 nM Dexamethasone (final concentration=10 nM).
Add compounds: 5 ul of assay media diluted compounds were added to appropriate wells and followed a quick spin (1000 rpm, 10 sec) to bring media and cells to the bottom of plate. The plates were covered with SealMate film to avoid evaporation and placed in 37° C. incubator for approximately 18-24 hours.
Read plates: Equilibrate appropriate amount of Promega OneGlo luciferase reagent to room temperature. Remove the plates from incubator and add 25 uL of OneGlo reagent/well by multiple channel pipette and read the plates with Tecan F500 luminometer within 3 minutes.
The ability of the compounds disclosed herein to inhibit GR activity was quantified and the respective IC50 value was determined. Table 3 provides the cellular IC50 values of various substituted steroidal compounds disclosed herein.
With `C[C@@H]1C[C@H]2[C@@H]3CCC4=CC(=O)CCC4=C3[C@@H](c3ccc(N(C)C)cc3)C[C@]2(C)[C@]1(O)C#CC(C)(C)C` [drawing 335] the IC50 was > 100 nM.
With `COC(C)(C)C#C[C@]1(O)CC[C@H]2[C@@H]3CCC4=CC(=O)CCC4=C3[C@@H](c3ccc(N4CCCC4)cc3)C[C@@]21C` [drawing 340] the IC50 was ≤ 100 nM.
With `COC1CN(c2ccc([C@H]3C[C@@]4(C)[C@@H](CC[C@@]4(O)C#CC(C)(C)C)[C@@H]4CCC5=CC(=O)CCC5=C43)cc2)C1` [drawing 341] the IC50 was ≤ 100 nM.
`CC(C)(C)C#C[C@]1(O)CC[C@H]2[C@@H]3CCC4=CC(=O)CCC4=C3[C@@H](c3ccc(N4CCN(S(C)(=O)=O)CC4)cc3)C[C@@]21C` [drawing 346] was tested, and the IC50 was ≤ 100 nM.
For `CN(C)c1ccc([C@H]2C[C@@]3(C)[C@@H](CC[C@@]3(O)C#Cc3ccc(S(C)(=O)=O)cc3)[C@@H]3CCC4=CC(=O)CCC4=C32)cc1` [drawing 352], the IC50 was ≤ 100 nM.
For `CN(C)c1ccc([C@H]2C[C@@]3(C)[C@@H](CC[C@@]3(O)C#CC3(C)COC3)[C@@H]3CCC4=CC(=O)CCC4=C32)cc1` [drawing 354], the IC50 was ≤ 100 nM.
`CC(C)(C)C#C[C@]1(O)CC[C@H]2[C@@H]3CCC4=CC(=O)CCC4=C3[C@@H](c3ccc(N4CCC[C@@H]4CO)cc3)C[C@@]21C` [drawing 364] was tested, and the IC50 was ≤ 100 nM.

Each molecule was assayed on AR (assay: In Vitro AR Agonism Assay). Settings: LNAR reporter cell line, 10% CSS, 18-24 hrs; ratio of maximum response to that of Mifepristone (set to 1).
Assay type: cell-based
Procedure: Example 5: In Vitro AR Agonism Assay
The AR agonism assay was done in the LNAR reporter cell line which has overexpressed AR and 4XARE-Luc genes. This cell line is sensitive to even minor partial AR agonism activity in hormone-deprived media (CSS). The assays were done in RPMI (without phenol red)+10% CSS using 6000 LNAR cells/well in 384-well plates and compounds were incubated with cells in […] incubator for 18-24 hrs. OneGlo reagent (25 uL/well) was added and plates were read with luminometer within 3 minutes.
To gauge the AR partial agonism activity, Mifepristone is included as a standard in the assay. AR agonism assay results are quantified by determining the ratio of the maximum response of individual compounds to the maximum response of Mifepristone (arbitrarily set to 1). Values of Table 4 are reported as Relative Maximum Response to Mifepristone. This general trend of AR agonism was shown for the class of compounds described herein.
In the case of `CN(C)c1ccc([C@H]2C[C@@]3(C)[C@@H](CC[C@@]3(O)C#Cc3ccccc3)[C@@H]3CCC4=CC(=O)CCC4=C32)cc1` [drawing 366], the “Relative Maximum Response to Mifepristone” value (from here on “Relative Maximum Response”) is reported as “A (A: ≤0.4)”.
In the case of `CC(C)(C)C#C[C@]1(O)CC[C@H]2[C@@H]3CCC4=CC(=O)CCC4=C3[C@@H](c3ccc(C(C)(C)C)cc3)C[C@@]21C` [drawing 367], the “Relative Maximum Response” value is reported as “A (A: ≤0.4)”.
For `CC(C)(C)C#C[C@]1(O)CC[C@H]2[C@@H]3CCC4=CC(=O)CCC4=C3[C@@H](c3ccc(N4CCCC4)cc3)C[C@@]21C` [drawing 368], the “Relative Maximum Response” value was “A (A: ≤0.4)”.
For `CC(C)(C)C#C[C@]1(O)CC[C@H]2[C@@H]3CCC4=CC(=O)CCC4=C3[C@@H](c3cccc(C4CC4)c3)C[C@@]21C` [drawing 369], the “Relative Maximum Response” value was “A (A: ≤0.4)”.
For `CN(C)c1ccc([C@H]2C[C@@]3(C)[C@@H](CC[C@@]3(O)C#CC(C)(C)C)[C@@H]3CCC4=CC(=O)CCC4=C32)cc1F` [drawing 370], the “Relative Maximum Response” value was “A (A: ≤0.4)”.
With `Cc1cc([C@H]2C[C@@]3(C)[C@@H](CC[C@@]3(O)C#CC(C)(C)C)[C@@H]3CCC4=CC(=O)CCC4=C32)ccc1N(C)C` [drawing 371] the “Relative Maximum Response” value was “A (A: ≤0.4)”.
For `Cc1c(F)cc([C@H]2C[C@@]3(C)[C@@H](CC[C@@]3(O)C#Cc3ccc(S(C)(=O)=O)cc3)[C@@H]3CCC4=CC(=O)CCC4=C32)cc1F` [drawing 372], the “Relative Maximum Response” value was “A (A: ≤0.4)”.
In the case of `CC(C)C#C[C@]1(O)CC[C@H]2[C@@H]3CCC4=CC(=O)CCC4=C3[C@@H](c3c(F)cc(N4CCOCC4)cc3F)C[C@@]21C` [drawing 373], the “Relative Maximum Response” value is reported as “A (A: ≤0.4)”.
For `CC(C)C#C[C@]1(O)CC[C@H]2[C@@H]3CCC4=CC(=O)CCC4=C3[C@@H](c3cc(F)c(C(C)C)c(F)c3)C[C@@]21C` [drawing 374], the “Relative Maximum Response” value was “A (A: ≤0.4)”.
For `CN(C)c1ccc([C@H]2C[C@@]3(C)[C@@H](CC[C@@]3(O)C#CC3CC3)[C@@H]3CCC4=CC(=O)CCC4=C32)c(F)c1F` [drawing 375], the “Relative Maximum Response” value was “A (A: ≤0.4)”.
In the case of `CN(C)c1cc(F)c([C@H]2C[C@@]3(C)[C@@H](CC[C@@]3(O)C#CC(C)(C)C)[C@@H]3CCC4=CC(=O)CCC4=C32)cc1F` [drawing 376], the “Relative Maximum Response” value is reported as “A (A: ≤0.4)”.
With `CCC#C[C@]1(O)CC[C@H]2[C@@H]3CCC4=CC(=O)CCC4=C3[C@@H](c3ccc4c(c3)OCCO4)C[C@@]21C` [drawing 377] the “Relative Maximum Response” value was “A (A: ≤0.4)”.
For `CC(C)(C)C#C[C@]1(O)CC[C@H]2[C@@H]3CCC4=CC(=O)CCC4=C3[C@@H](c3ccc4c(c3)OCO4)C[C@@]21C` [drawing 378], the “Relative Maximum Response” value was “A (A: ≤0.4)”.
With `C[C@@H]1C[C@H]2[C@@H]3CCC4=CC(=O)CCC4=C3[C@@H](c3ccc(N(C)C)cc3)C[C@]2(C)[C@]1(O)C#CC(C)(C)C` [drawing 379] the “Relative Maximum Response” value was “A (A: ≤0.4)”.
In the case of `COC(C)(C)C#C[C@]1(O)CC[C@H]2[C@@H]3CCC4=CC(=O)CCC4=C3[C@@H](c3ccc(N4CCCC4)cc3)C[C@@]21C` [drawing 380], the “Relative Maximum Response” value is reported as “A (A: ≤0.4)”.
`COC1CN(c2ccc([C@H]3C[C@@]4(C)[C@@H](CC[C@@]4(O)C#CC(C)(C)C)[C@@H]4CCC5=CC(=O)CCC5=C43)cc2)C1` [drawing 381] was tested, and the “Relative Maximum Response” value was “A (A: ≤0.4)”.
In the case of `CC(C)(C)C#C[C@]1(O)CC[C@H]2[C@@H]3CCC4=CC(=O)CCC4=C3[C@@H](c3ccc(N4CCN(S(C)(=O)=O)CC4)cc3)C[C@@]21C` [drawing 382], the “Relative Maximum Response” value is reported as “B (B: >0.4)”.
With `CN(C)c1ccc([C@H]2C[C@@]3(C)[C@@H](CC[C@@]3(O)C#Cc3ccc(S(C)(=O)=O)cc3)[C@@H]3CCC4=CC(=O)CCC4=C32)cc1` [drawing 383] the “Relative Maximum Response” value was “B (B: >0.4)”.
In the case of `CN(C)c1ccc([C@H]2C[C@@]3(C)[C@@H](CC[C@@]3(O)C#CC3(C)COC3)[C@@H]3CCC4=CC(=O)CCC4=C32)cc1` [drawing 384], the “Relative Maximum Response” value is reported as “A (A: ≤0.4)”.
`CC(C)(C)C#C[C@]1(O)CC[C@H]2[C@@H]3CCC4=CC(=O)CCC4=C3[C@@H](c3ccc(N4CCC[C@@H]4CO)cc3)C[C@@]21C` [drawing 385] was tested, and the “Relative Maximum Response” value was “A (A: ≤0.4)”.

Same assay, conditions: LNAR reporter cell line; in concentrations as low as 10 nM
`CC#C[C@]1(O)CC[C@H]2[C@@H]3CCC4=CC(=O)CCC4=C3[C@@H](c3ccc(N(C)C)cc3)C[C@@]21C` [Mifepristone, reference compound] was tested, and the “partial AR agonism” value was “strong partial AR agonism”.
